From patent US20240158348A1, “HERBICIDAL CYCLIC AMIDES N-SUBSTITUTED WITH A HALOALKYLSULFONYLANILIDE GROUP” (FMC Corporation, priority 2021, published 2024)

Assays:
Assay type in all cases: in vivo
corn (Zea mays) = assay: Test C preemergence, corn; conditions: 0 is no effect, 100 is complete control
Summary of the method: (§1)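 Plants grown in a sand and loam soil blend received the formulated test chemicals either as a preemergence soil-directed spray or postemergence at 2 to 10 cm height. After 10 or 12 greenhouse days, injury was assessed visually, with 100 meaning complete control.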

[1] = system: goosegrass (Eleusine indica); assay: Test C preemergence, goosegrass; conditions: 0 is no effect, 100 is complete control
Summary of the method: as §1

kochia (Bassia scoparia) [2] = assay: Test C preemergence, kochia; conditions: 0 is no effect, 100 is complete control
Summary of the method: (§2)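 Visual injury rating, 0 (no effect) to 100 (complete control), versus untreated controls after 10 or 12 days in the greenhouse. Compounds were formulated in non-phytotoxic solvent plus surfactant and applied either as a directed soil spray at sowing or onto emerged one- to two-leaf plants.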

[3] = system: foxtail, giant (giant foxtail, Setaria faberi); assay: Test C postemergence, giant foxtail; conditions: visual injury, 0 to 100 scale (0 no effect, 100 complete control)
kochia (Bassia scoparia) [4] = assay: Test C postemergence, kochia; conditions: visual injury, 0 to 100 scale (0 no effect, 100 complete control)
Summary of the method: as §2

[5] = system: ragweed (common ragweed, Ambrosia artemisiifolia); assay: Test C postemergence, ragweed; conditions: visual injury, 0 to 100 scale (0 no effect, 100 complete control)
Summary of the method: as §2

[6] = system: horseweed (Erigeron canadensis); assay: Test C postemergence, horseweed; conditions: visual injury, 0 to 100 scale (0 no effect, 100 complete control)
Summary of the method: as §2

[7] = system: barnyardgrass (Echinochloa crusgalli); assay: Test D flooded paddy test, barnyardgrass; design: key: 0 = no effect, 100 = complete control; conditions: 250 g ai/ha, Flood; applied to paddy water at 2-leaf stage; visual rating after 13 days; scale 0 (no effect) to 100 (complete control)
Summary of the method: (§3)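 Visual response scores run 0 (no effect) to 100 (complete control), judged against controls 13 days after treatment. Compounds were added to paddy water 3 cm deep over soil, around plants at the 2-leaf stage kept in a greenhouse.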

rice (Oryza sativa) = assay: Test D flooded paddy test, rice; design: key: 0 = no effect, 100 = complete control; conditions: 250 g ai/ha, Flood; applied to paddy water at 2-leaf stage; visual rating after 13 days; scale 0 (no effect) to 100 (complete control)
Summary of the method: as §3

Row | Compound | Plant response rating (0 to 100 scale), Corn (corn (Zea mays); 31 g ai/ha Preemergence) | Plant response rating (0 to 100 scale), Corn (corn (Zea mays); 125 g ai/ha Preemergence) | Plant response rating (0 to 100 scale), Goosegrass ([1]; 31 g ai/ha Preemergence) | Plant response rating (0 to 100 scale), Goosegrass ([1]; 125 g ai/ha Preemergence) | Plant response rating (0 to 100 scale), Kochia (kochia (Bassia scoparia) [2]; 31 g ai/ha Preemergence) | Plant response rating (0 to 100 scale), Kochia (kochia (Bassia scoparia) [2]; 125 g ai/ha Preemergence) | Foxtail, Giant plant response rating ([3]; 31 g ai/ha Postemergence) | Foxtail, Giant plant response rating ([3]; 125 g ai/ha Postemergence) | Kochia plant response rating (kochia (Bassia scoparia) [4]; 31 g ai/ha Postemergence) | Kochia plant response rating (kochia (Bassia scoparia) [4]; 125 g ai/ha Postemergence) | Ragweed plant response rating ([5]; 31 g ai/ha Postemergence) | Ragweed plant response rating ([5]; 125 g ai/ha Postemergence) | Horseweed plant response rating ([6]; 31 g ai/ha Postemergence) | Horseweed plant response rating ([6]; 125 g ai/ha Postemergence) | Plant response rating, Barnyardgrass [7] | Plant response rating, Rice (rice (Oryza sativa))
1 | Cc1cc(C)c(N2CCC(OCC3CCCO3)C2=O)cc1NS(=O)(=O)C(F)(F)F (stereo not drawn) [Compound 42] | 0 | 70 | 50 | 100 | 20 | 90 | 20 | 90 | 10 | 60 | 40 | 90 | 20 | 80 | 0 | 15
2 | Cc1cc(C)c(N2CCC(OCC3CCC3)C2=O)cc1NS(=O)(=O)C(F)(F)F (stereo not drawn) [Compound 43] | 40 | 100 | 60 | 100 | 60 | 80 | 10 | 90 | 20 | 60 | 50 | 90 | 30 | 60 | 25 | 30
3 | Cc1c(NS(=O)(=O)C(F)(F)F)cc(N2CCC(OC3CCC3)C2=O)c(C)c1C (stereo not drawn) [Compound 45] | 90 | 100 | 100 | 100 | 90 | 100 | 30 | 80 | 70 | 100 | 50 | 80 | 30 | 90 | 95 | 55
4 | Cc1c(NS(=O)(=O)C(F)(F)F)cc(N2CCC(OC3CC3)C2=O)c(C)c1C (stereo not drawn) [Compound 47] | 30 | 90 | 100 | 100 | 70 | 100 | 70 | 90 | 40 | 80 | 60 | 80 |  | 100 | 75 | 30
5 | Cc1c(N2CCC(OC3CC3)C2=O)cc(N(COC(=O)C(C)(C)C)S(=O)(=O)C(F)(F)F)c(C)c1C (stereo not drawn) [Compound 49] | 0 | 50 | 60 | 90 | 30 | 70 | 60 | 90 | 40 | 60 | 70 | 90 |  | 100 | 100 | 40
6 | Cc1c(N2CCC(OC3CCC3)C2=O)cc(N(COC(=O)C(C)(C)C)S(=O)(=O)C(F)(F)F)c(C)c1C (stereo not drawn) [Compound 51] | 0 | 40 | 0 | 90 | 30 | 80 | 0 | 40 | 30 | 70 | 60 | 80 | 60 | 90 | 100 | 10
7 | Cc1cc(C)c(N2CCC(OCC3CCC3(F)F)C2=O)cc1NS(=O)(=O)C(F)(F)F (stereo not drawn) [Compound 52] | 10 | 90 | 80 | 100 | 70 | 100 | 0 | 50 | 20 | 70 | 40 | 70 | 80 | 90 | 20 | 0
8 | Cc1cc(C)c(N(COC(=O)C(C)(C)C)S(=O)(=O)C(F)(F)F)cc1N1CCC(OCC2CC2(F)F)C1=O (stereo not drawn) [Compound 54] | 0 | 30 | 20 | 100 | 0 | 30 | 30 | 70 | 30 | 50 | 50 | 80 | 70 | 90 | 45 | 0
9 | Cc1cc(C)c(N(COC(=O)C(C)(C)C)S(=O)(=O)C(F)(F)F)cc1N1CCC(OCC2CC(F)(F)C2)C1=O (stereo not drawn) [Compound 55] | 0 | 10 | 10 | 100 | 0 | 10 | 30 | 70 | 0 | 20 | 50 | 80 | 80 | 80 | 50 | 15
10 | Cc1cc(C)c(N(COC(=O)C(C)(C)C)S(=O)(=O)C(F)(F)F)cc1N1CCC(OCC2CCC2)C1=O (stereo not drawn) [Compound 56] | 0 | 10 | 10 | 90 | 0 | 70 | 10 | 40 | 0 | 30 | 20 | 60 | 20 | 80 | 35 | 0
11 | Cc1cc(C)c(N2CCC(OCC3CCCC3)C2=O)cc1NS(=O)(=O)C(F)(F)F (stereo not drawn) [Compound 57] | 0 | 50 | 90 | 100 | 60 | 80 | 60 | 70 | 50 | 70 | 40 | 60 | 0 | 80 | 15 | 10
12 | C#CC(C)OC1CCN(c2cc(NS(=O)(=O)C(F)(F)F)c(C)cc2C)C1=O (stereo not drawn) [Compound 58] | 20 | 100 | 100 | 100 | 80 | 90 | 60 | 90 | 70 | 90 | 70 | 90 | 90 | 90 | 90 | 60
13 | C=C(C)COC1CCN(c2cc(NS(=O)(=O)C(F)(F)F)c(C)cc2C)C1=O (stereo not drawn) [Compound 59] | 40 | 100 | 90 | 100 | 80 | 100 | 10 | 90 | 70 | 80 | 10 | 70 | 20 | 80 | 60 | 40
14 | CC#CCOC1CCN(c2cc(NS(=O)(=O)C(F)(F)F)c(C)cc2C)C1=O (stereo not drawn) [Compound 60] | 30 | 100 | 90 | 100 | 90 | 100 | 80 | 90 | 100 | 90 | 80 | 90 | 80 | 100 | 90 | 35
